For one molecule, Solubility results are on record in US20090085008A1, “Cellulose compound composition and cellulose compound film” (FUJIFILM Corporation, priority 2005, published 2009).

The nature of the data set: Solubility in mixture solvent methylene chloride:methanol = 87:13. The format is physicochemical. The settings on record: Methylene chloride:Methanol = 87:13 (mass ratio).

Method: A test was conducted to evaluate the solubility of the compound represented by formula (1) or (2), which can be used in the present invention, in a halogen-containing mixture solution.

Regarding `COc1cc(OC)c(C(=O)Oc2ccc(C(=O)Oc3ccc(-c4ccc(OC(=O)c5ccc(OC(=O)c6cc(OC)c(OC)cc6OC)cc5)cc4)cc3)cc2)cc1OC` [Analogous compound], the Solubility is listed as 1%.
